Earlier results as cited in US7368585B2, “Synthetic techniques and intermediates for polyhydroxy dienyl lactones and mimics thereof” (The Trustees Of The University Of Pennsylvania, priority 1996, dated 2008).

Columns and labels:
[1] = test system: cell development at the M phase; conditions: by binding and stabilizing mitotic spindle microtubules
[2] = test system: two-way mixed-lymphocyte reaction; conditions: in vitro
murine splenocytes [3] = conditions: in vitro
[4] = test system: mitotic spindle microtubules; conditions: compared with taxol
[5] = test system: graft-vs.-host splenomegaly response; conditions: in vivo
murine splenocytes [6] = conditions: in vitro; remark: listed apart in the source

Compound: C=C/C=C\[C@H](C)[C@H](OC(N)=O)[C@@H](C)[C@H](O)[C@@H](C)C/C(C)=C\[C@H](C)[C@@H](O)[C@@H](C)/C=C\[C@@H](O)C[C@@H]1OC(=O)[C@H](C)[C@@H](O)[C@H]1C [(+)-discodermolide]
- cell cycle effect [1]: arrests cell development at the M phase
- suppression of the two-way mixed-lymphocyte reaction [2]: suppresses
- associated cytotoxicity (murine splenocytes [3]): no associated cytotoxicity
- microtubule binding affinity relative to taxol [4]: much higher
- potency in graft-vs.-host splenomegaly response relative to cyclosporin A and FK506 ([5]; F1 recipient mice): intermediate between those of cyclosporin A and FK506
- suppression of graft-vs.-host splenomegaly response ([5]; injection of parental splenocytes into F1 recipient mice): suppresses
- suppression of concanavalin A-induced mitogenesis of murine splenocytes (murine splenocytes [6]): suppresses
